Measurements: ChEMBL document CHEMBL1157975, “Diterpenoids from the roots of Euphorbia fischeriana” (J Nat Prod, 2006)
Values after ≈ are worked out from the molar mass of the structure shown.

Each compound was assayed on Ramos (assay: Cytotoxicity against human Ramos B cells after 72 hrs by MTT assay).
Type: functional, cell-based

SMILES	IC50 [µg/mL]
CC(=O)OCC1=C2[C@H]3O[C@]34CC[C@@H]3C(C)(C)CCC[C@@]3(C)[C@@H]4[C@H]3O[C@@]23OC1=O [17-ACETOXYJOLKINOLIDE B]	0.023 (≈ 0.0592 µM)
CCCCCCCCCC(=O)O[C@@]12C[C@@H](C)[C@]3(O)[C@@H](C=C(CO)C[C@@]4(O)C(=O)C(C)=C[C@@H]34)[C@@H]1C2(C)C	0.0051 (≈ 0.0101 µM)
CC(=O)O[C@@]12C[C@@H](C)[C@@]3(O)[C@@H](C=C(CO)C[C@]4(O)C(=O)C(C)=C[C@@H]34)[C@@H]1C2(C)C [PROSTRATIN]	0.056 (≈ 0.143 µM)
